From patent US20220378794A1 (Sinopia Biosciences, Inc., priority 2019, published 2022)

Tested on: chronic low-dose MPTP lesioned non-human primate model of cognitive impairment
Conditions: levodopa 5-20 mg/kg (groups 6-8); in particular shorter delay periods DP1 and DP2; vs vehicle

N[C@@H](Cc1ccc(O)c(O)c1)C(=O)O [levodopa]
accuracy of VDR test: trend toward completing the VDR test with lower accuracy
